We go through 60 molecules from patent US20070015774A1, “Quinazoline derivatives useful in cancer treatment” (Schering Corporation, priority 2005, published 2007).

The assay deals with GST-p53 DNA binding domain (aa 92-aa 312) (Homo sapiens, UniProt P04637). In words: Scintillation Proximity Assay (SPA), displacement of 3H STANDARD COMPOUND
The settings on record: 1 h, 2 ug/mL of drug, read-out: SPA ASSAY % Residual T @ 2 ug/mL of drug (Average of). From the text:
Most of the oncogenic mutants of the tumor suppressor protein p53 lack sequence specific DNA binding activity at physiological temperature due to conformational changes in the DNA binding domain. Small molecules and peptide which bind to the p53 DNA binding domain stabilize the conformation and restore DNA binding activity to mutant p53 protein (Science 286, 2507-2510, 1999; PNAS, 99, 937-942, 2002). Using ^3H STANDARD COMPOUND (structure shown below; carbon atom with * is the atom labelled), [drawing 1366] a radio labeled small molecule which binds to p53, and the GST-p53 DNA binding domain (aa 92-aa 312), we have developed a quantitative screening assay. The assay is based on Scintillation Proximity Assay (SPA) technology, developed by Amersham Biosciences to measure molecular interactions. Briefly, the complex of GST-p53, ^3H STANDARD and Glutathione-SPA beads (Amersham Biosciences) are incubated with mixing for 1 hr at room temperature in the presence of the novel compounds to be screened. The signal is read on Microbeta. The compounds which have the ability to displace ^3H STANDARD COMPOUND are selected. Such molecules will stabilize the conformation and restore DNA binding activity to mutant p53 protein.
The above assay was used to determine the ability of the compounds of this invention to directly bind to p53 core and restore DNA binding activity to mutant p53 and the results for selected compounds have been given above in various tables.
A letter rating corresponding to % Residual total binding (T) @ 2 ug/mL of drug (i.e., compound of the present invention) from this assay have been assigned as follows: Compounds having % Residual T values of from 0% to less than 20% have been assigned the letter “A”. Compounds having % Residual T values of from 20% to less than 40% have been assigned the letter “B”. Compounds having % Residual T values of from 40% to less than 80% have been assigned the letter “C”. Compounds having % Residual T values of 80% or higher have been assigned the letter “D”. The exact % Residual T values @ 2 ug/mL for some illustrative compounds are shown below: […]
In general terms: SPA uses beads or plates that emit light when radiolabelled molecules are held near them.

Setting [1] is: residual total binding of 3H STANDARD COMPOUND, lower is better.
Setting [2] is: letter rating, number in brackets = number of determinations averaged.
[3] abbreviates: exact values, number in brackets = number of determinations averaged.

Like-named read-outs stand apart in the source and are kept apart here.

GST-p53 DNA binding domain (aa 92-aa 312), sequence (P04637 92-312): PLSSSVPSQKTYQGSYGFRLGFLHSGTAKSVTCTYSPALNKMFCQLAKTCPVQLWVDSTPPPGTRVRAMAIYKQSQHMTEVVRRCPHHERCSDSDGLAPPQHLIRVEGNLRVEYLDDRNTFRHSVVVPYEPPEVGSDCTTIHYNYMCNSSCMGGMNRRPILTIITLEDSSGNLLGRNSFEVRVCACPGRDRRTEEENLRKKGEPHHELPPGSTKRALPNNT

Take `COC(=O)[C@@H](Nc1nc(CNC(=O)Nc2ccccc2C(F)(F)F)nc2ccccc12)C(C)C` [34-36]: the remaining activity at 2 µg/mL under setting [1] was 40 to 80%.
Consider `COC(=O)[C@@H](Nc1nc(CNC(=O)Nc2ccc(Cl)c(Cl)c2)nc2ccccc12)C(C)C` [34-39], for which the remaining activity at 2 µg/mL under setting [1] was in the range of 40 to 80%.
On the same count and under the same terms, the figure for `COC(=O)[C@@H](Nc1nc(CNC(=O)Nc2cc(Cl)cc(Cl)c2)nc2ccccc12)C(C)C` [34-40] is 40 to 80%; for `COC(=O)[C@@H](Nc1nc(CNC(=O)Nc2ccccc2-c2ccccc2)nc2ccccc12)C(C)C` [34-41] it is 40 to 80%; for `COC(=O)[C@@H](Nc1nc(CNC(=O)Nc2cccc(Br)c2)nc2ccccc12)C(C)C` [34-42] it is 40 to 80%.
`CC(C)CCN(C)Cc1nc(NCCCN(C)C)c2ccccc2n1` [38-1]: under setting [2], the remaining activity at 2 µg/mL was in the range of 20 to 40%.
The same measure, in the same setting: the figure for `CCC(C)CN(C)Cc1nc(NCCCN(C)C)c2ccccc2n1` (stereo not shown) [38-2] is 40 to 80%.
Still for that read-out and setting: the figure for `CN(C)CCCNc1nc(CN(C)Cc2ccco2)nc2ccccc12` [38-3] is 40 to 80%.
As for `CN(C)CCCNc1nc(CN(C)Cc2ccoc2)nc2ccccc12` [38-4], the remaining activity at 2 µg/mL under setting [2] was in the range of 40 to 80%.
On the same count and under the same terms, next, `CN(C)CCCNc1nc(CN(C)Cc2cccs2)nc2ccccc12` [38-8]: at least 80%; `CN(C)CCCNc1nc(CN(C)Cc2nccs2)nc2ccccc12` [38-10]: 20 to 40%.
With `CN(C)CCCNc1nc(CN(C)Cc2cccc(F)c2)nc2ccccc12` [38-16], the remaining activity at 2 µg/mL under setting [2] was at least 80%.
The same measure, in the same setting: the figure for `CN(C)CCCNc1nc(CN(C)Cc2ccccc2C#N)nc2ccccc12` [38-18] is 40 to 80%; for `CN(C)CCCNc1nc(CN(C)Cc2cccc(C#N)c2)nc2ccccc12` [38-19] it is 40 to 80%; for `CN(C)CCCNc1nc(CN(C)Cc2ccc(C#N)cc2)nc2ccccc12` [38-20] it is 40 to 80%.
As for `CN(C)CCCNc1nc(CN(C)C/C=C/c2ccccc2)nc2ccccc12` [38-21], the remaining activity at 2 µg/mL under setting [2] was at least 80%.
Same read-out and setting: next, `Cc1cccc(C)c1CN(C)Cc1nc(NCCCN(C)C)c2ccccc2n1` [38-24]: at least 80%; `COc1ccc(CN(C)Cc2nc(NCCCN(C)C)c3ccccc3n2)cc1` [38-27]: 40 to 80%; `CN(C)CCCNc1nc(CN(C)Cc2ccc(Cl)cc2)nc2ccccc12` [38-30]: 40 to 80%.
With `CN(C)CCCNc1nc(CN(C)Cc2c(F)cccc2F)nc2ccccc12` [38-31], the remaining activity at 2 µg/mL under setting [2] was in the range of 40 to 80%.
Same read-out and setting: next, `CCOC(=O)C1CC1CN(C)Cc1nc(NCCCN(C)C)c2ccccc2n1` (stereo not shown) [38-32]: 40 to 80%.
Consider `CN(C)CCCNc1nc(CN(C)Cc2cccc3cc[nH]c23)nc2ccccc12` [38-33], for which the remaining activity at 2 µg/mL is, setting by setting: under setting [3], 25.7%; under setting [2], 20 to 40%.
As to `CN(C)CCCNc1nc(CN(C)Cc2cc3ccccc3o2)nc2ccccc12` [38-34], under setting [2], the remaining activity at 2 µg/mL lay within 40 to 80%.
The same measure, in the same setting: next, `CC(CCN(C)Cc1nc(NCCCN(C)C)c2ccccc2n1)c1ccccc1` (stereo not shown) [38-35]: at least 80%; `CN(C)CCCNc1nc(CN(C)Cc2ccccc2C(=O)O)nc2ccccc12` [38-36]: at least 80%.
As to `CN(C)CCCNc1nc(CN(C)Cc2cccc3c2OCO3)nc2ccccc12` [38-37], the remaining activity at 2 µg/mL under setting [2] was in the range of 40 to 80%.
In the case of `CN(C)CCCNc1nc(CN(C)Cc2cccc3ccccc23)nc2ccccc12` [38-41], the remaining activity at 2 µg/mL under setting [2] fell in the range of 40 to 80%.
The same measure, in the same setting: next, `CN(C)CCCNc1nc(CN(C)Cc2ccc3ccccc3c2)nc2ccccc12` [38-42]: 40 to 80%.
Still for that read-out and setting: next, `COC(=O)c1ccc(CN(C)Cc2nc(NCCCN(C)C)c3ccccc3n2)cc1` [38-46]: 40 to 80%; `CN(C)CCCNc1nc(CN(C)Cc2cccc(C(F)(F)F)c2)nc2ccccc12` [38-48]: 40 to 80%.
Still for that read-out and setting: the figure for `CN(C)CCCNc1nc(CN(C)Cc2cccc(Cl)c2Cl)nc2ccccc12` [38-50] is at least 80%; for `CN(C)CCCNc1nc(CN(C)Cc2cc(Cl)ccc2Cl)nc2ccccc12` [38-52] it is 40 to 80%.
As for `Cc1c(CN(C)Cc2nc(NCCCN(C)C)c3ccccc3n2)sc2ccccc12` [38-56], the remaining activity at 2 µg/mL by setting is: under setting [3], 23.6%; under setting [2], 20 to 40%.
Consider `CN(C)CCCNc1nc(CN(C)Cc2ccccc2OCC(=O)O)nc2ccccc12` [38-57], for which the remaining activity at 2 µg/mL under setting [2] was at least 80%.
For `CN(C)CCCNc1nc(CN(C)Cc2ccc(-c3ccccc3)cc2)nc2ccccc12` [38-59], the remaining activity at 2 µg/mL under setting [2] is at least 80%.
Still for that read-out and setting: next, `CN(C)CCCNc1nc(CN(C)Cc2ccc(Oc3ccccc3)cc2)nc2ccccc12` [38-64]: 40 to 80%; `CN(C)CCCNc1nc(CN(C)Cc2ccc(C#Cc3ccccc3)cc2)nc2ccccc12` [38-65]: at least 80%; `CN(C)CCCNc1nc(CN(C)Cc2cccn2S(=O)(=O)c2ccccc2)nc2ccccc12` [38-66]: 40 to 80%.
The same measure, in the same setting: the figure for `CN(C)CCCNc1nc(CN(C)Cc2ccccc2Sc2ccc(Cl)cc2)nc2ccccc12` [38-67] is 40 to 80%.
As to `CN(C)CCCNc1nc(CN(C)C2CCC2)nc2ccccc12` [38-68], the remaining activity at 2 µg/mL under setting [2] is at least 80%.
Still for that read-out and setting: the figure for `CN(C)CCCNc1nc(CN(C)C2CCCCC2)nc2ccccc12` [38-72] is 40 to 80%; for `CN(C)CCCNc1nc(CN(C)C2CCSC2)nc2ccccc12` (stereo not shown) [38-74] it is 40 to 80%; for `CN(C)CCCNc1nc(CN(C)C2C[C@@H]3CC[C@H]2C3)nc2ccccc12` (stereo partly shown) [38-75] it is at least 80%.
On the same count and under the same terms, next, `CC1CCC(N(C)Cc2nc(NCCCN(C)C)c3ccccc3n2)CC1` (stereo not shown) [38-77]: 40 to 80%.
With `CC(C)C1CCC(N(C)Cc2nc(NCCCN(C)C)c3ccccc3n2)CC1` (stereo not shown) [38-81], the remaining activity at 2 µg/mL is, setting by setting: under setting [3], 13.5%; under setting [2], 0 to 20%.
Take `CC(=O)N1CCC(N(C)Cc2nc(NCCCN(C)C)c3ccccc3n2)CC1` [38-82]: the remaining activity at 2 µg/mL under setting [2] was 40 to 80%.
For the molecule `CN(C)CCCNc1nc(CN(C)C2CCC3CCCCC3C2)nc2ccccc12` (stereo not shown) [38-83], the remaining activity at 2 µg/mL was 28.7% under setting [3] and 20 to 40% under setting [2].
Regarding `CN(C)CCCNc1nc(CN(C)C2CCC(C(C)(C)C)CC2)nc2ccccc12` (stereo not shown) [38-84], the remaining activity at 2 µg/mL by setting is: under setting [3], 7.8%; under setting [2], 0 to 20%.
For `CN(C)CCCNc1nc(CN(C)C2CCC3(CC2)OCCO3)nc2ccccc12` [38-85], in that order: 23% and 20 to 40%.
Take `CN(C)CCCNc1nc(CN(C)C2CCCC(C(F)(F)F)C2)nc2ccccc12` (stereo not shown) [38-86]: the remaining activity at 2 µg/mL under setting [2] lay within 40 to 80%.
Consider `CN(C)CCCNc1nc(CN(C)C2CCC(C(F)(F)F)CC2)nc2ccccc12` (stereo not shown) [38-87], for which the remaining activity at 2 µg/mL under setting [2] lay in the range of 40 to 80%.
Take `CCC(C)(C)C1CCC(N(C)Cc2nc(NCCCN(C)C)c3ccccc3n2)CC1` (stereo not shown) [38-88]: the remaining activity at 2 µg/mL is, setting by setting: under setting [3], 6.3%; under setting [2], 0 to 20%.
For `CN(C)CCCNc1nc(CN(C)C2CCC(c3ccccc3)CC2)nc2ccccc12` (stereo not shown) [38-89], in that order: 21% and 20 to 40%.
For `CN(C)CCCNc1nc(CN(C)C2CCC(C#N)(c3ccccc3)CC2)nc2ccccc12` (stereo not shown) [38-90], in that order: 5.5% and 0 to 20%.
For `CN(C)CCCNc1nc(CN(C)C2CCN(C(=O)c3ccccc3)CC2)nc2ccccc12` [38-91], in that order: 20.7% and 20 to 40%.
On to `CN(C)CCCNc1nc(CN(C)CC2CCCCC2)nc2ccccc12` [38-93], for which the remaining activity at 2 µg/mL under setting [2] was 40 to 80%.
For `COc1ccc(Cl)cc1NC(=O)N(C)Cc1nc(NCCCN(C)C)c2ccccc2n1` [41-30], the remaining activity at 2 µg/mL (letter rating, Examples 41 table) fell in the range of 40 to 80%.
Regarding `COc1ccc(/C=C/c2nc(NCCCN(C)C)c3ccccc3n2)cc1` [CP-31398, reference compound], the remaining activity at 2 µg/mL under setting [3] is 61.3%.
The same measure, in the same setting: next, `CN(Cc1ccccc1)Cc1nc2ccccc2c(=O)[nH]1` [PE-17]: 36.8%; `CN(C)CCCNc1nc(CN(C)Cc2ccccc2)nc2ccccc12` [PE-19]: 22.2%.
